ChEMBL document CHEMBL2169843 (J Med Chem, 2012)

Molecular target: Sigma non-opioid intracellular receptor 1 (Cavia porcellus, UniProt Q60492)
Test: Displacement of [3H]-(+)-pentazocine from sigma-1 receptor in guinea pig brain homogenates
Type: tissue-based

Chain of Sigma non-opioid intracellular receptor 1 (Q60492 whole entry): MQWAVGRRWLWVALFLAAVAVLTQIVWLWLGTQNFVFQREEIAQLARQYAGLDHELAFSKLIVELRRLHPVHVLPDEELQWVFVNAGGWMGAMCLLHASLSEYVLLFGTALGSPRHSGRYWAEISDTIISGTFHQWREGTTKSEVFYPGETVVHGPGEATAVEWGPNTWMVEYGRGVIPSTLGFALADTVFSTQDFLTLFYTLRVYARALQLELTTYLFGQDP

| Structure (SMILES) | Ki |
| --- | --- |
| NCC[C@@H]1CCO[C@H](c2ccccc2)O1 | > 10000 nM |
| CCC[C@]1(c2ccccc2)OCC[C@H](CCN)O1 | > 10000 nM |
| C[C@]1(c2ccccc2)OCC[C@H](CCN)O1 | > 10000 nM |
| CCC1(c2ccccc2)OCCC(CCN)O1 (racemic) | > 10000 nM |
| NCC[C@H]1CCO[C@@H](c2ccccc2)O1 | > 10000 nM |
| C[C@@]1(c2ccccc2)OCC[C@@H](CCN)O1 | > 10000 nM |
| CC[C@@]1(c2ccccc2)OCC[C@@H](CCN)O1 | > 10000 nM |
| NCCC1CCOC(c2ccccc2)O1 (racemic) | > 10000 nM |
| CC[C@]1(c2ccccc2)OCC[C@H](CCN)O1 | > 10000 nM |

The next lines start with the values.

| Ki | Structure (SMILES) |
| --- | --- |
| 6 nM | c1ccc(CNCC[C@@H]2CCO[C@H](c3ccccc3)O2)cc1 |
| 28 nM | CC[C@]1(c2ccccc2)OCC[C@H](CCNCc2ccccc2)O1 |
| 20 nM | CC[C@@]1(c2ccccc2)OCC[C@@H](CCNCc2ccccc2)O1 |
| 11 nM | C[C@]1(c2ccccc2)OCC[C@H](CCNCc2ccccc2)O1 |
| 253 nM | CC(C)(C)[C@]1(c2ccccc2)OCC[C@H](CCNCc2ccccc2)O1 |
| 50 nM | c1ccc(CNCC[C@H]2CCO[C@@H](c3ccccc3)O2)cc1 |
| > 10000 nM | CC(C)(C)[C@@]1(c2ccccc2)OCC[C@@H](CCN)O1 |
| > 10000 nM | CCC[C@@]1(c2ccccc2)OCC[C@@H](CCN)O1 |
| > 10000 nM | CC(C)(C)[C@]1(c2ccccc2)OCC[C@H](CCN)O1 |
| 128 nM | CC(C)(C)[C@@]1(c2ccccc2)OCC[C@@H](CCNCc2ccccc2)O1 |
| 136 nM | CCC[C@]1(c2ccccc2)OCC[C@H](CCNCc2ccccc2)O1 |
| 72 nM | CCC[C@@]1(c2ccccc2)OCC[C@@H](CCNCc2ccccc2)O1 |
| 17 nM | C[C@@]1(c2ccccc2)OCC[C@@H](CCNCc2ccccc2)O1 |
